Columns and labels:
[1] = target: T1, E. coli β-galactosidase (Escherichia coli, UniProt P00722); assay: in vitro; format: biochemical; details: PBS pH 7.4, 37° C., HPLC, read-out: TG release t1/2(min)
T1 construct: purchased Sigma G4155
Procedure: Compound A-1, A-2, or B-1 was dissolved in DMSO and mixed with PBS buffer solution to prepare 500 μM stock solution (1% DMSO). Methyl phenyl sulfone (MPS, CAS Number 3112-85-4, internal standard) was dissolved in PBS buffer solution to make 500 μM solution. 790 μL of PBS buffer (pH 7.4), 10 μL of the solution of compound A-1, A-2, or B-1 (500 μM) and 200 μL of MPS solution (500 μM) were mixed. Enzyme solution (E. coli β-galactosidase, Sigma G4155, 18 μL of 1 mg/mL) was added to 882 μL of the reaction mixture. When comparing with human p-galactosidase, 116 μL of the enzyme solution (0.1 mg/mL) was added, and solutions of compound A-1, A-2, or B-1 (140 μL), MPS (140 μL), and the buffer solution (533 μL, pH 7.4) were mixed.
The reaction mixture was incubated at 37° C. The enzyme reaction solution was aliquoted at 0 min before the reaction and at a predetermined time after the reaction, wherein each aliquot was 70 μL. The remaining compound A-1, A-2, or B-1, MPS, and the material liberated by the enzyme reaction were quantitatively analyzed by HPLC.

[2] = system: NCI-N87 cancer cells; assay: Cell cytotoxicity of conjugates (MTT), NCI-N87; format: cell-based; details: NCI-N87, 72 hours of incubation
Procedure: (§1) NCI-N87, SK-BR3 cancer cells were seeded in 96-well plates at a density of 5,000 cells per well in 100 μL of medium, and cultured for 24 hours. The eight compounds obtained in Example 55 and T-DM1 were treated by serial dilutions of 1:5 from 50 nM to 0.000128 nM. After 72 hours of incubation, 0.2 mL of 3-(4,5-dimethylthiazol-2-yl)-2,5-diphenyltetrazolium bromide (MTT) dye, dissolved in PBS buffer solution (5 mg/mL), was added to each well of the plates. The formazans formed by reduction of the MTT dye by mitochondrial oxidoreductases in the living cells were dissolved in DMSO, and measured using the absorbance at 550 nm.

[3] = system: SK-BR3 cancer cells; assay: Cell cytotoxicity of conjugates (MTT), SK-BR3; format: cell-based; details: SK-BR3, 72 hours of incubation
Procedure: as §1

T1 sequence (P00722 2-1024): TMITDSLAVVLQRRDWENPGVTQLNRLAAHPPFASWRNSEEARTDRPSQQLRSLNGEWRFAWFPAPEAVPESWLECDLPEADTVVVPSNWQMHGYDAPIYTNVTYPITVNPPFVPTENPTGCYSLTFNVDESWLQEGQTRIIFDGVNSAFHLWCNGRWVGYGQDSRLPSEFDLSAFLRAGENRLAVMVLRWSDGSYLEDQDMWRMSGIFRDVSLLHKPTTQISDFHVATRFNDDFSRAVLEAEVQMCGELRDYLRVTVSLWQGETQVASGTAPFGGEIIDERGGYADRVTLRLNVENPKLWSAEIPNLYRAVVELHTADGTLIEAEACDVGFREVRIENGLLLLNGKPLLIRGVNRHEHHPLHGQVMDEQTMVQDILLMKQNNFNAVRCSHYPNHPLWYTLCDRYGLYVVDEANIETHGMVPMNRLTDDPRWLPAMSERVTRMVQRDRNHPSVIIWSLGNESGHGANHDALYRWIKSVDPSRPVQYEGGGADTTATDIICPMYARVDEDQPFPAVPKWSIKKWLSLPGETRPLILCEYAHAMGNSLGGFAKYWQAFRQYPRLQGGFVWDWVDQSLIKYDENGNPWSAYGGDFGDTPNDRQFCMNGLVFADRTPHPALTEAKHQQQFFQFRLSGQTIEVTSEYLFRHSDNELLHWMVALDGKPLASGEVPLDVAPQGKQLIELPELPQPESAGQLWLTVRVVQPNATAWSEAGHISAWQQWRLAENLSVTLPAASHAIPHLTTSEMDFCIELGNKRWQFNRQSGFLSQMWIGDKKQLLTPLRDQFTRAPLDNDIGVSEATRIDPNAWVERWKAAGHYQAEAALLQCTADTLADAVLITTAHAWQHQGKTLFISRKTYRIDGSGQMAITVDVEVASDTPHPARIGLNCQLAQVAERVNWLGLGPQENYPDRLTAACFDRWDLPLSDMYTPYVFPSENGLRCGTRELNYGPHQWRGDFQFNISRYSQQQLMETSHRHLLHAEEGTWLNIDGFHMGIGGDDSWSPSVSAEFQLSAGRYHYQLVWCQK

**Q.** Which half-life at 4.9 μM [1] does the source give for `CNC(=O)[C@H](Cc1ccc(OS(=O)(=O)Cc2ccc(OC3O[C@H](CO)[C@H](O)[C@H](O)[C@H]3O)c(C(=O)NCCOCCOCCOCCN=[N+]=[N-])c2)cc1)NC(=O)OC(C)(C)C` (some centres unmarked) [Compound A-2] here?
**A.** Its half-life at 4.9 μM is less than 10 min.

**Q.** With `CNC(=O)[C@H](Cc1ccc(OS(=O)(=O)Cc2ccc(OC3O[C@H](CO)[C@H](O)[C@H](O)[C@H]3O)cc2)cc1)NC(=O)OC(C)(C)C` (some centres unmarked) [Compound A-1] as the molecule, how does the half-life at 4.9 μM [1] read?
**A.** The half-life at 4.9 μM was less than 5 min.

**Q.** For T-DM1, which IC50 [2] is on record?
**A.** Its IC50 is 0.766 nM.

**Q.** And the IC50 [3]?
**A.** Its IC50 is 0.042 nM.

**Q.** `C[N+]1(Cc2ccc(OS(=O)(=O)Cc3ccc(OC4O[C@H](CO)[C@H](O)[C@H](O)[C@H]4O)cc3)cc2)CCCC[C@@H]1C(=O)Nc1ccccc1` (some centres unmarked) [Compound B-1] was tested. Which half-life at 4.9 μM [1] did it give?
**A.** Its half-life at 4.9 μM is less than 5 min.

Source: patent publication US20220118104A1, “COMPOUNDS COMPRISING CLEAVABLE LINKER AND USES THEREOF” (IntoCell, Inc., priority 2019, published 2022)
